Experimental data: patent publication US12616739B2, “GLP-1 prodrugs and uses thereof” (Novo Nordisk A/S, priority 2020, dated 2026)

Assay: Prodrug to drug conversion half-life in vitro, PBS pH 7.4, 37° C.
Format: physicochemical
Conditions: buffer
Protocol: General Methods for Measuring Conversion Half-Life
The assay was performed to investigate the conversion half-life of prodrug to drug of the prodrugs of the invention.
Peptide stock solutions were prepared by dissolving freeze-dried powder in PBS buffer to a target of 200 μM. PBS-buffer was Dulbecco's Phosphate Buffered Saline without CaCl2 and MgCl2, gibco 14190-094 adjusted to pH=7.4. The pH of the peptide stock solutions was adjusted to 7.4 with 0.02 M HCl or 0.02M NaOH. Samples were filled in Agilent HPLC vials with fixed insert. Vials were capped to prevent evaporation. The HPLC vials were incubated at 37° C. and samples were withdrawn at different time points over a period of 2 weeks, flash frozen at −80° C., and stored at −20° C. until analysis.
Sample analysis was carried out using UPLC coupled to UV detection at 215 nm and MS (UPLC-UV-MS). One μl of sample was injected on to a Waters Acquity UPLC with a flow-through-needle injection system and on to a Waters Acquity CSH C18 column (1*150 mm), with a particle size of 1.7 μm and held at 55° C. A flow-rate of 100 μl/min was delivered with a Binary solvent manager pump having 0.1% formic acid in water as solvent A and 0.1% formic acid in acetonitrile as solvent B. Gradient elution was carried out using 15-32% B from 0 to 4 min followed by 32 to 48% B from 4 to 54 min. […]

SMILES	half-life
CC[C@H](C)[C@H](NC(=O)[C@H](Cc1ccccc1)NC(=O)[C@H](CCC(=O)O)NC(=O)[C@H](CCCCNC(=O)COCCOCCNC(=O)COCCOCCNC(=O)CC[C@H](NC(=O)CCCCCCCCCCCCCCCCC(=O)O)C(=O)O)NC(=O)[C@H](C)NC(=O)[C@H](C)NC(=O)[C@H](CCC(N)=O)NC(=O)CNC(=O)[C@H](CCC(=O)O)NC(=O)[C@H](CC(C)C)NC(=O)[C@H](Cc1ccc(O)cc1)NC(=O)[C@H](CO)NC(=O)[C@H](CO)NC(=O)[C@@H](NC(=O)[C@H](CC(=O)O)NC(=O)[C@H](CO)NC(=O)[C@@H](NC(=O)[C@H](Cc1ccccc1)NC(=O)[C@@H](NC(=O)CNC(=O)[C@H](CCC(=O)O)NC(=O)C(C)(C)NC(=O)[C@H](Cc1c[nH]cn1)NC(=O)CN(CCNC(=O)CC[C@H](NC(=O)CCCCCCCCCOc1ccc(C(=O)O)cc1)C(=O)O)C(=O)CN)[C@@H](C)O)[C@@H](C)O)C(C)C)C(=O)N[C@@H](C)C(=O)N[C@@H](Cc1c[nH]c2ccccc12)C(=O)N[C@@H](CC(C)C)C(=O)N[C@H](C(=O)N[C@@H](CCCNC(=N)N)C(=O)NCC(=O)N[C@@H](CCCNC(=N)N)C(=O)NCC(=O)O)C(C)C [Chem. 18, Gly-N^α-2-[[(4S)-4-carboxy-4-[10-(4-carboxyphenoxy)decanoylamino]butanoyl]amino]ethyl-Gly-semaglutide]	115 h
CC[C@H](C)[C@H](NC(=O)[C@H](Cc1ccccc1)NC(=O)[C@H](CCC(=O)O)NC(=O)[C@H](CCCCNC(=O)COCCOCCNC(=O)COCCOCCNC(=O)CC[C@H](NC(=O)CCCCCCCCCCCCCCCCC(=O)O)C(=O)O)NC(=O)[C@H](C)NC(=O)[C@H](C)NC(=O)[C@H](CCC(N)=O)NC(=O)CNC(=O)[C@H](CCC(=O)O)NC(=O)[C@H](CC(C)C)NC(=O)[C@H](Cc1ccc(O)cc1)NC(=O)[C@H](CO)NC(=O)[C@H](CO)NC(=O)[C@@H](NC(=O)[C@H](CC(=O)O)NC(=O)[C@H](CO)NC(=O)[C@@H](NC(=O)[C@H](Cc1ccccc1)NC(=O)[C@@H](NC(=O)CNC(=O)[C@H](CCC(=O)O)NC(=O)C(C)(C)NC(=O)[C@H](Cc1c[nH]cn1)NC(=O)CN(CCNC(=O)CC[C@H](NC(=O)CCCCCCCCCCOc1ccc(C(=O)O)cc1)C(=O)O)C(=O)CN)[C@@H](C)O)[C@@H](C)O)C(C)C)C(=O)N[C@@H](C)C(=O)N[C@@H](Cc1c[nH]c2ccccc12)C(=O)N[C@@H](CC(C)C)C(=O)N[C@H](C(=O)N[C@@H](CCCNC(=N)N)C(=O)NCC(=O)N[C@@H](CCCNC(=N)N)C(=O)NCC(=O)O)C(C)C [Chem. 26, Gly-N^α-2-[[(4S)-4-carboxy-4-[11-(4-carboxyphenoxy)undecanoylamino]butanoyl]amino]ethyl-Gly-semaglutide]	118 h
